According to patent US9416115B2, “Fused heterocyclic compounds as ion channel modulators” (Gilead Sciences, Inc., priority 2013, dated 2016):
Where two headings read alike, the source gives them in different places.

Key:
[1] = biological target: T1, wild-type human cardiac sodium channel, hNav1.5 (Homo sapiens, UniProt Q14524); test: Late INa screening assay (QPatch whole cell patch clamp, Tefluthrin-induced late current); assay type: cell-based; conditions: 1 uM; HEK293 hNav1.5; percent block of late INa
T1 sequence (Q14524 whole entry): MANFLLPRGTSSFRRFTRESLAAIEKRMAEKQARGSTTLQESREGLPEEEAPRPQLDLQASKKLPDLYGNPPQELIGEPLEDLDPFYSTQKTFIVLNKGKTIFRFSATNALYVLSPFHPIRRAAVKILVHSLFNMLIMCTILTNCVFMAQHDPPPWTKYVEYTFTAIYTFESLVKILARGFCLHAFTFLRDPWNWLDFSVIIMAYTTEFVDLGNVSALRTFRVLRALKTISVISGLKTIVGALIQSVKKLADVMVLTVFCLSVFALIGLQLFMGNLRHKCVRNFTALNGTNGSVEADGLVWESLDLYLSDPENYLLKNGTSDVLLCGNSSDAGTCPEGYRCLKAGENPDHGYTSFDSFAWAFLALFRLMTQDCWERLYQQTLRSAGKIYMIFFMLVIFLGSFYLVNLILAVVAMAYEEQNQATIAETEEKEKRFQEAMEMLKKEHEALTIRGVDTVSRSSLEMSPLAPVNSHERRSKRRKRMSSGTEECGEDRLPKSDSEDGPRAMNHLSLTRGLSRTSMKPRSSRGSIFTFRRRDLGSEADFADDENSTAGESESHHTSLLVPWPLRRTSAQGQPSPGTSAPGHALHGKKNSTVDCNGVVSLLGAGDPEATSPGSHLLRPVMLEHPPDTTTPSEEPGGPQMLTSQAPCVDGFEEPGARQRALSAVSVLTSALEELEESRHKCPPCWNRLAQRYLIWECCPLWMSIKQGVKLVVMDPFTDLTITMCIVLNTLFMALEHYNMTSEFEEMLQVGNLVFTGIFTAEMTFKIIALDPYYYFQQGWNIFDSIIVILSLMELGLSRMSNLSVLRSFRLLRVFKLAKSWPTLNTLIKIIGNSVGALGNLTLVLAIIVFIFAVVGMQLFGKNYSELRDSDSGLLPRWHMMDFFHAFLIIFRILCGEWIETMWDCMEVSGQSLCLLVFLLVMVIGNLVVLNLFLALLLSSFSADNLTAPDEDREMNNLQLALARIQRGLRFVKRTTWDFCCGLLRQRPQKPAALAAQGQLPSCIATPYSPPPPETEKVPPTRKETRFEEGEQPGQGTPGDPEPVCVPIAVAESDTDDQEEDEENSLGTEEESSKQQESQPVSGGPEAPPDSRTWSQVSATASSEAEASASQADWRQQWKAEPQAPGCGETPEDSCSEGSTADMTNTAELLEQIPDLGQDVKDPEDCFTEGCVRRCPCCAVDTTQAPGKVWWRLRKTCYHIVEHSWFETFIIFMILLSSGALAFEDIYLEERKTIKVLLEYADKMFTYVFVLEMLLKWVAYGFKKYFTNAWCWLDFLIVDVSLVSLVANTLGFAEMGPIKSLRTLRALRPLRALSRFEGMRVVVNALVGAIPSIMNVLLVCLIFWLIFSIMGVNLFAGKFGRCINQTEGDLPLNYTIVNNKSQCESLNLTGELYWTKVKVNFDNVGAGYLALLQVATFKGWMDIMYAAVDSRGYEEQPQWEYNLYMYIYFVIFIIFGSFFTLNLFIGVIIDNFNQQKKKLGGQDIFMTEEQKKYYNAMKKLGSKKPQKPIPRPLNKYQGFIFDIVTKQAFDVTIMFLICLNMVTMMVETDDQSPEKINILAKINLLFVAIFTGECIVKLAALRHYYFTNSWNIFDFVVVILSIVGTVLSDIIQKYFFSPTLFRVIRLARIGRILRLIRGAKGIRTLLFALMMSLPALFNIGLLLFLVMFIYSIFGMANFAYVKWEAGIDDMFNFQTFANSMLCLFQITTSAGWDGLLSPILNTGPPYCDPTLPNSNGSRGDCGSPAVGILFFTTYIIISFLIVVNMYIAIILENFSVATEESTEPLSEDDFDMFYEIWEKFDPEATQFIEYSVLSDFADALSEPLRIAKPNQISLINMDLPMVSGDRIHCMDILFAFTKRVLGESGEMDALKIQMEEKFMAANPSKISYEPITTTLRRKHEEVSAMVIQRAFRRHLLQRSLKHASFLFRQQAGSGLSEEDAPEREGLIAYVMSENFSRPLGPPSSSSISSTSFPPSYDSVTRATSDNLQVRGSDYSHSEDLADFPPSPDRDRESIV
Procedure, shortened: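 HEK293 cells stably expressing hNav1.5 without beta subunits were whole-cell patch clamped at 23-25 °C, stepping from −120 to −20 mV for 250 ms at 0.1 Hz. Late current (240–265 ms) was induced with 10 μM Tefluthrin, and compounds were added typically at 0.3 or 1 μM. Percent block was taken against 0 Na baseline with rundown correction.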

[2] = biological target: T1, wild-type human cardiac sodium channel, hNav1.5; test: Peak INa screening assay (tonic block and use-dependent block); assay type: cell-based
Procedure, shortened: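 Whole-cell automated patch clamp, 23-25° C, on hNav1.5 alpha-only HEK293 cells with Na+ lowered to 40 mM by choline. Block measured after two additions of 1 or 3 μM compound and 200 s wait: tonic at 0.1 Hz, use-dependent at 50th pulse (−20 mV, 20 ms, 3 Hz) from −100 mV, relative to drug-free, rundown corrected.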

[3] = tonic block of Peak INa, 0.1 Hz, holding -100 mV, read-out: Peak TB 3 uM
[4] = use-dependent block of Peak INa, 3 Hz, pulse 50, read-out: Peak UDB 3 Hz 3 uM

SMILES: CC1(COc2noc3ccc(-c4ccc(OC(F)(F)F)cc4)cc23)COC1 [Example 92, 3-((3-methyloxetan-3-yl)methoxy)-5-(4-(trifluoromethoxy)phenyl)benzo[d]isoxazole]
- inhibition at 1 µM [1]: 36.3%
- inhibition at 3 µM [2, 3]: 9.6%
- inhibition at 3 µM [2, 4]: < 5%

SMILES: Cc1cccnc1COc1noc2ccc(-c3ccc(OC(F)(F)F)cc3)cc12 [Example 93, 3-((3-methylpyridin-2-yl)methoxy)-5-(4-(trifluoromethoxy)phenyl)benzo[d]isoxazole]
- inhibition at 1 µM [1]: 45.1%
- inhibition at 3 µM [2, 3]: 14.9%
- inhibition at 3 µM [2, 4]: < 5%

SMILES: Cc1cccc(COc2noc3ccc(-c4ccc(OC(F)(F)F)cc4)cc23)n1 [Example 95, 3-((6-methylpyridin-2-yl)methoxy)-5-(4-(trifluoromethoxy)phenyl)benzo[d]isoxazole]
- inhibition at 1 µM [1]: 51.7%
- inhibition at 3 µM [2, 3]: 6.4%
- inhibition at 3 µM [2, 4]: < 5%

SMILES: OCC1(COc2noc3ccc(-c4ccc(OC(F)(F)F)cc4)cc23)COC1 [Example 97, (3-(((5-(4-(trifluoromethoxy)phenyl)benzo[d]isoxazol-3-yl)oxy)methyl)oxetan-3-yl)methanol]
- inhibition at 1 µM [1]: 39%
- inhibition at 3 µM [2, 3]: 26.5%
- inhibition at 3 µM [2, 4]: < 5%

SMILES: CC(Oc1noc2ccc(-c3ccc(OC(F)(F)F)cc3)cc12)c1ccccn1 (stereo not drawn) [Example 98, 3-(1-(pyridin-2-yl)ethoxy)-5-(4-(trifluoromethoxy)phenyl)benzo[d]isoxazole]
- inhibition at 1 µM [1]: 38.7%
- inhibition at 3 µM [2, 3]: 28.7%
- inhibition at 3 µM [2, 4]: < 5%
